One data set in a line: in vivo. The arrangement: species or system mice. As to conditions: mouse. Here is the method: Cysteamine was detected in plasma by high performance liquid chromatography analysis with ultraviolet detection (Dias V C, et al. (1998) Clin Chem 44: 2199-2201). Briefly, blood was collected in EDTA/heparin-containing tubes, and plasma was obtained by centrifugation. Plasma thiols were reduced by treatment with Tris(2-carboxyethyl)phosphine (0.05M final concentration, 20 min. at 20° C.), and proteins were precipitated with tri-chloroacetic acid (TCA, 10% final concentration). Free thiols from the protein-free supernatant were derivatized using SBD-F ([…]), used at a final concentration of 0.2 mg/ml (1 hr at 60° C.) in 0.05 M borate buffer (pH 9.5). The mixture was then analyzed by HPLC: the mobile phase consisted of an aqueous solvent (0.1M acetic acid, 0.1 sodium acetate, pH 4.3) running on a Supelco™ LC-8 column, and elution of plasma analytes was with a 0-10% acetonitrile gradient. Detection of SBD-F derivatized analytes was by reading fluorescence at 515 nm (excitation at 385 nm). Cysteamine elution peaks were quantified (surface area), and plasma concentrations were calculated using a set of internal cysteamine standards processed at the same time. Area under the curve (AUCt0-tlast) was calculated using the trapezoid approximation method.
To gain more insight into the anti-malarial effect of cysteamine (Cys) in vivo, the pharmacokinetic characteristics (plasma level) of Cys administered through the sub-cutaneous (s.c.) and intra-peritoneal (i.p) routes was compared. […] To determine which pharmacokinetic parameter (AUC vs. Cmax) is important for efficacy against Plasmodium, the i.p. and s.c. routes of injection were compared in a continuous treatment regimen, starting one day prior to infection (10^5 pRBC of P. chabaudi, i.v.) and continuing daily for 7 days. Parasitemia was monitored on thin blood smears at days 5, 6 and 7 following infection (FIG. 1B). Treatment of infected animals with 120 mg/kg of Cys administered either s.c. or i.p. caused a highly significant (p<0.01) 50% reduction in parasitemia at day 5 and 6, relative to saline injected controls.
It was next determined whether Cys at equivalent dosing to that used in the clinical treatment of nephropathic cystinosis in humans has an effect on the course and severity of P. chabaudi infection in mice. In cystinosis patients, Cys is given orally as Cys bitartrate (Cystagon®). […] The efficacy of different regimens of 50 mg/kg Cys s.c. (number of injections, interval between injections) on replication of P. chabaudi in vivo was evaluated. P. chabaudi-infected mice were treated daily, starting at day −1 and continuing to day 10, with either 1×150 mg/kg, 3×50 mg/kg given at 2 hr intervals, 4×50 mg/kg given at 2 hr intervals or 3×50 mg/kg given at 1 hr intervals of Cys, and blood parasitemia was monitored at days 5, 6 and 7 (FIG. 2B).

The next data set deals with Plasmodium berghei ANKA. The data set is described as follows: Plasmodium berghei ANKA infection (cerebral malaria model) in C57BL/6J mice, parasitemia and survival. The note with it: Cysteamine alone. In kind it is in vivo. Here is the method: FIGS. 8A and 8B show the results of two independent experiments on the effect of cysteamine and artesunate combinations on the progression of Plasmodium berghei ANKA infection (parasitemia). Groups of 5 adult 18-20 g C57BL/6J males and females were infected intravenously with 1×10^6 erythrocytes parasitized with P. berghei ANKA at time “0”. Two hours later, mice were injected i.p with either Artemisinin alone or with Artemisinin/Cysteamine combinations (at the indicated concentrations in mg/kg body weight). In the case of the latter, Artemisinin was injected first in one quadrant, and cysteamine was injected second, 10-15 minutes later in another quadrant. The drug treatment was further repeated at days 1, 2 and 3 post-infection to emulate the standard 4-day test used in anti-malarial drug discovery. Starting at day 5, blood was collected, thin blood smears were prepared, and parasitemia was determined (400 erythrocytes counted, expressed as percentage parasitized erythrocytes). Error bars show standard deviations on the mean; and
FIGS. 9A and 9B show the results of two independent experiments on the effect of cysteamine and artesunate combinations on the survival of Plasmodium berghei ANKA-infected mice. Infection and drug administration were performed as described above for FIGS. 8A and 8B. Animals were monitored for the appearance and severity of cerebral symptoms (CM phase, shown as rectangle in graph), and moribund animals were euthanized, and time of death was recorded.
Intravenous infection with Plasmodium berghei ANKA is an accepted mouse model of cerebral malaria (CM) (Hunt, N. H. et al. 2006, Int. J. Parasitol. 36: 569-582). The infection causes the following pathology. First, there is appearance of blood parasitemia, starting at days 3 or 4, which can go up to 10% by day 7-8. Starting at day 5-6, there is emergence of cerebral symptoms caused by permeability of the blood brain barrier, concomitant to trapping of parasitized red cells in the microvasculature and acute pathological host inflammatory response in situ. This cerebral phase quickly progresses from tremors, to paralysis, to coma, and is uniformly lethal in mice by days 8-10. In this model, progress of infection and possibly drug effects may be monitored by a) appearance and intensity of blood parasitemia (between days 5-8), b) appearance of cerebral symptoms, and c) lethality.

Structures are written as SMILES.

The term AUC denotes the area under the concentration-time curve, a measure of exposure. A lower AUC goes with less exposure. The Cmax is the highest concentration seen after dosing. The term Tmax denotes the time at which the peak concentration occurs. On to `NCCS` [Cysteamine], for which, in “in vivo” (ip, 120 mg/kg), the AUC is 405 µM·h, the Cmax amounted to 665 µM and the Tmax was less than 5 min. In “in vivo” (sc, 50 mg/kg), this compound showed an AUC of 47.4 µM·h and a Cmax of roughly 80 µM. In the data set “in vivo” (sc, 120 mg/kg), the AUC is 255 µM·h, the Cmax was 250 µM and the Tmax was 30 min. Further, in the data set with Plasmodium berghei ANKA, the “effect on survival of P. berghei-infected animals” value is “minor positive effect on survival”.
